Laboratory results as given in PubChem BioAssay (NCI).
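Each compound was tested at five concentrations against cells in 96-well plates for 48 hours. The concentration for 50% growth inhibition is given as GI50. TGI marks complete inhibition of growth.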

How the values were obtained:
Test in all cases: inhibition of tumour cell growth, NCI panel, 48 h
KM12 colon = system: KM12 colon
SN12C renal = system: SN12C renal
OVCAR-5 ovarian = system: OVCAR-5 ovarian
CAKI-1 renal = system: CAKI-1 renal
HOP-62 NSCLC = system: HOP-62 NSCLC
HCT-116 colon = system: HCT-116 colon
SF-539 CNS = system: SF-539 CNS
OVCAR-4 ovarian = system: OVCAR-4 ovarian
NCI-H226 lung = system: NCI-H226 lung
BT-549 breast = system: BT-549 breast

Compound	TGI (KM12 colon) [µM]	TGI (SN12C renal) [µM]	TGI (OVCAR-5 ovarian) [µM]	TGI (CAKI-1 renal) [µM]	TGI (HOP-62 NSCLC) [µM]	TGI (HCT-116 colon) [µM]	TGI (SF-539 CNS) [µM]	TGI (OVCAR-4 ovarian) [µM]	GI50 (KM12 colon) [µM]	GI50 (SN12C renal) [µM]	GI50 (OVCAR-5 ovarian) [µM]	GI50 (NCI-H226 lung) [µM]	TGI (NCI-H226 lung) [µM]	GI50 (HOP-62 NSCLC) [µM]	GI50 (HCT-116 colon) [µM]	GI50 (BT-549 breast) [µM]	TGI (BT-549 breast) [µM]	GI50 (SF-539 CNS) [µM]	GI50 (OVCAR-4 ovarian) [µM]	GI50 (CAKI-1 renal) [µM]
CC(=O)CCCCO	> 100	> 100	> 100	> 100	> 100	> 100	> 100	> 100	–	–	–	–	–	–	–	–	–	–	–	–
COc1ccc(C(=O)c2cc3c(OC)c(OC)c(OC)cc3[nH]2)cc1	> 100	> 100	> 100	–	80.9	> 100	> 100	> 100	2.36	5.21	66.9	> 100	> 100	19.6	3.22	8.51	> 100	4.76	> 100	–
COc1ccc(-c2ccc(-c3ccc(-c4ccc(C(=N)N)cc4)s3)s2)cc1OC	2.16	21.8	3.6	30.4	17.9	–	38.7	–	0.749	3.6	1.44	18.5	58.4	3.26	–	17.3	46.8	15.4	–	15.1
O=Nc1ccc2ccccc2c1O	19.2	5.26	30.4	19.3	–	7.36	37.2	5.32	6.23	1.9	14.1	12.4	29.1	–	2.6	17.7	31.6	20.8	1.89	3.14
CO[C@@H]1CC(=O)C2(CC(=O)O[C@@H]2/C=C(\C)CCC=C(C)C)C[C@@H]1O (stereo partly drawn)	3.97	1.64	1.96	2.74	2.64	1.14	1.56	–	1.03	0.705	0.769	0.755	2.05	1.06	0.489	0.492	2.34	0.502	–	0.87
Cc1cc(NS(=O)(=O)c2ccc(NC(=O)c3cccc4c(Nc5ccc(S(=O)(=O)N=C(N)N)cc5)c5ccccc5nc34)cc2)no1	> 100	> 100	> 100	> 100	> 100	> 100	> 100	> 100	–	–	–	–	> 100	–	–	–	–	–	–	–
NC(N)=NNC(=O)CCCCCCCC(=O)NN=C(N)N	> 100	> 100	> 100	> 100	> 100	> 100	> 100	> 100	–	–	–	–	–	–	–	–	–	–	–	–
Nc1c(C(=O)Nc2ccccc2)[n+]([O-])c2ccccc2[n+]1[O-]	30.4	31.4	37.5	16.8	34.4	–	37.3	33.5	–	–	–	–	76.3	–	–	–	–	–	–	–
COc1ccc(/C=C\c2cc(OC)c(OC)c(OC)c2)cc1OC(=O)CCC(=O)O	–	> 100	–	> 100	> 100	–	–	> 100	–	–	–	–	< 0.0001	–	–	–	> 100	–	–	< 0.0001
c1ccc2c(c1)[nH]c1cnc3c4cccnc4[nH]c3c12	–	34.1	40.3	33.7	96.1	30.8	44.7	32.6	–	–	–	–	64	–	–	–	–	–	–	–
COc1cc2c(cc1O)CC13CCC(=O)N1CCc1cc(OC)c(O)c-2c13 (stereo not drawn)	–	> 68.1	> 68.1	> 68.1	> 68.1	> 68.1	> 68.1	> 68.1	–	–	–	–	> 68.1	–	–	–	–	–	–	–
O=C(Cc1cccc(OC(F)(F)F)c1)Nc1ccc(CCCCc2nnc(NC(=O)Cc3ccccn3)s2)nn1	> 100	> 100	> 100	> 100	–	> 100	50.3	29	14.1	18.5	> 100	15.1	54.1	–	16.2	27.9	> 100	15.7	7.23	4.81
COC(=O)[C@]12CC[C@@H](C)[C@H](C)[C@@H]1C1=CC[C@@H]3[C@@]4(C)C=C(O)C(=O)[C@@]5(C)COC(=C54)C[C@@]3(C)[C@]1(C)CC2	29.4	–	49.6	26.7	35	22.9	44.3	23.5	11.9	–	20.9	15.1	41.3	15.4	9.49	7.96	25.8	18.4	8.32	9.36
CC(=O)OC1(C)C(=O)OC1(C)C(C)=O (stereo not drawn)	> 100	> 100	> 100	> 100	–	> 100	> 100	> 100	–	–	–	–	> 100	–	–	–	–	–	–	–
Cc1ccc(-c2cc(C3=CC(=O)C=CC3=O)n(-c3ccc(S(N)(=O)=O)cc3)n2)cc1	> 100	> 100	> 100	> 100	> 100	33	–	–	24	58.7	35.9	54	> 100	69.7	17.3	64.1	> 100	–	–	52.3
CCN(c1ccc(Br)cc1)c1c(Br)c(=O)nc2ccccn12	> 100	> 100	> 100	> 100	> 100	> 100	> 100	–	–	–	–	–	> 100	–	–	–	–	–	–	–
CCCCOC(=O)NC(=O)c1cn(CCSCCOC(=O)NCCCCCCNC(=O)OCCSCCn2cc(C(=O)NC(=O)OCCCC)c(=O)[nH]c2=O)c(=O)[nH]c1=O	> 100	> 100	> 100	–	> 100	> 100	> 100	> 100	–	–	–	–	–	–	–	–	–	–	–	–
CN1CCN(Cc2ccc(NC(=O)c3ccc(C#Cc4c(N)ncc5ccc(F)cc45)cc3)cc2C(F)(F)F)CC1	1.52	1.78	1.85	7.55	1.59	–	1.78	5.83	0.733	0.913	0.993	1.07	2.6	0.883	–	3.19	9.68	–	1.48	1.97
